The subject of assay [1] is Ileum. The assay is described as follows: Inhibition of acetylcholine-induced contraction in guinea pig ileum at 0.2 ug/ml. The assay is classed as functional, tissue-based. The following applies: Cavia porcellus.
Assay [2] relates to Ileum. The assay is described as follows: Inhibition of acetylcholine-induced contraction in guinea pig ileum at 0.5 ug/ml. The assay is classed as functional, tissue-based. The following applies: Cavia porcellus.
A further assay concerns KB. The assay is described as follows: Cytotoxicity against human KB cells. Type of assay: functional, cell-based.
Assay [3] deals with P388. The assay is described as follows: Cytotoxicity against mouse P388 cells. Type of assay: functional, cell-based.
For a further assay, the species on record is Cavia porcellus. The assay is described as follows: Antagonist activity at serotonin receptor in guinea pig ileum. The assay is classed as functional, tissue-based.
For the next assay, the system named is HT-29. The assay is described as follows: Cytotoxicity against human HT-29 cells. The assay is classed as functional, cell-based.
Assay [4] deals with Ileum. The assay is described as follows: Inhibition of serotonin-induced contraction in guinea pig ileum at 4 ug/ml. The assay is classed as functional, tissue-based. To be noted: Cavia porcellus.
Assay [5] relates to P388. The assay is described as follows: Cytotoxicity against mouse doxorubicin-resistant P388 cells. Type of assay: functional, cell-based.
The nature of assay [6]: Cytotoxicity against human NSCLC-N6 cells. Type of assay: functional, cell-based.

In brackets after ≈: the same amount, converted by molar mass. Activity calls are given as the source filed them. The calls are words filed in the database; no cut-off is given here.

As for `CC(C)NCC(O)COc1cccc2ccccc12` (centres undefined), the outcome in the assay with Ileum [1] was inactive.

Regarding `CC(COc1ccccc1)N(CCCl)Cc1ccccc1` (centres undefined), in the assay on Ileum [2], the result was inactive.

In the case of `NCCc1c(C(CN)c2c[nH]c3cc(Br)ccc23)[nH]c2cc(C(CN)c3c[nH]c4cc(Br)ccc34)c(O)cc12` (racemic) [GELLIUSINE A], the IC50 (with KB; in the assay on P388 [3]; in the assay with HT-29; in the assay with P388 [5]; in assay [6]) was 10 µg/mL (≈ 15.4 µM) each time. Moreover, the outcome in the assay listed under Cavia porcellus and with Ileum [4] was Active.

The values above are taken from ChEMBL document CHEMBL1148063, “(+/-)-Gelliusines A and B, two diastereomeric brominated tris-indole alkaloids from a deep water new caledonian marine sponge (Gellius or Orina sp.)” (J Nat Prod, 1994).
